Reference: ChEMBL document CHEMBL3045320, “Synthesis, antitumor and antioxidant evaluation of some new thiazole and thiophene derivatives incorporated coumarin moiety” (2012)

Experiments:
[1] = Cytotoxicity against Mus musculus (mouse) EAC cells assessed as dead cell at ED25 ug/cm'3 after 2 hr by trypan blue assay; format: functional, Ehrlich
[2] = Antioxidant activity assessed as inhibition of ABTS free radical; format: functional; parameters: concentration or dose not given beside the values; settings: dose or concentration not given here
[3] = Cytotoxicity against Mus musculus (mouse) EAC cells assessed as dead cell at ED50 ug/cm'3 after 2 hr by trypan blue assay; format: functional, Ehrlich
[4] = Cytotoxicity against Mus musculus (mouse) EAC cells assessed as dead cell at ED100 ug/cm'3 after 2 hr by trypan blue assay; format: functional, Ehrlich

SMILES	Activity [1]	inhibition [2]	Activity [3]	Activity [4]
N#CCC(=O)Nc1nc(-c2cc3ccccc3oc2=O)cs1	1.8%	70.3%	3.8%	8%
O=C1O[C@H]([C@@H](O)CO)C(O)=C1O		84%		
N#C/C(C(=O)N1NC(=O)C2C3c4ccccc4C(c4ccccc43)C2C1=O)=C1/SC=C(c2cc3ccccc3oc2=O)N1c1ccccc1 (stereo not drawn)	1.1%	5.74%	2.6%	5.4%
N#C/C(=C1/SC=C(c2cc3ccccc3oc2=O)N1c1ccccc1)c1nc2ccccc2s1	1.5%	4.15%	3%	5.7%
Nc1c(C(=O)c2cc3ccccc3oc2=O)sc(Nc2ccccc2)c1C(=O)N1NC(=O)C2C3c4ccccc4C(c4ccccc43)C2C1=O (stereo not drawn)	1.6%	13.7%	3%	6.1%
CC(=O)c1cc2ccccc2oc1=O		63.6%		
N=c1oc2ccccc2cc1C(=O)Nc1nc(-c2cc3ccccc3oc2=O)cs1	1.3%	61.4%	2.1%	4.9%
N#C/C(C(=O)Nc1nc(-c2cc3ccccc3oc2=O)cs1)=C(\Nc1ccccc1)SCC(=O)c1cc2ccccc2oc1=O	1.5%	23.8%	3.2%	6.8%
O=c1[nH]cc(F)c(=O)[nH]1 [FLUOROURACIL]	37%		58%	93%
Nc1nc(-c2cc3ccccc3oc2=O)cs1		74.3%		
Nc1c(C(=O)c2cc3ccccc3oc2=O)sc(Nc2ccccc2)c1-c1nc2ccccc2s1	1.6%	5.94%	2.9%	5.7%
Nc1c(C(=O)c2cc3ccccc3oc2=O)sc(Nc2ccccc2)c1-c1nc2ccccc2[nH]1	1.4%	0.19%	2.6%	5.6%
O=C(CBr)c1cc2ccccc2oc1=O		50.2%		
Nc1c(C(=O)c2cc3ccccc3oc2=O)sc(Nc2ccccc2)c1C(=O)Nc1nc(-c2cc3ccccc3oc2=O)cs1	1.7%	35.4%	3%	7.1%
Nc1c(C(=O)c2cc3ccccc3oc2=O)sc(S)c1-c1nc2ccccc2s1		75.6%		
N#C/C(C(=O)Nc1nc(-c2cc3ccccc3oc2=O)cs1)=C1/SC(=O)CN1c1ccccc1	1.6%	28.9%	3.1%	7%
